Measurements reported in US11236084B2, “Substituted azaindoline derivatives as NIK inhibitors” (Janssen Pharmaceutica NV, priority 2017, dated 2022).
Where two headings read alike, the source gives them in different places.

Assays:
[1] = target: T1, recombinant human NF-kappaB-inducing kinase (NIK/MAP3K14) (Homo sapiens, UniProt Q99558); assay: Biological Assay B: inhibition of auto-phosphorylation of recombinant human NIK/MAP3K14 (AlphaScreen), performed at 2 locations; format: biochemical; conditions: AlphaScreen auto-phosphorylation, averaged values
T1 sequence (Q99558 whole entry): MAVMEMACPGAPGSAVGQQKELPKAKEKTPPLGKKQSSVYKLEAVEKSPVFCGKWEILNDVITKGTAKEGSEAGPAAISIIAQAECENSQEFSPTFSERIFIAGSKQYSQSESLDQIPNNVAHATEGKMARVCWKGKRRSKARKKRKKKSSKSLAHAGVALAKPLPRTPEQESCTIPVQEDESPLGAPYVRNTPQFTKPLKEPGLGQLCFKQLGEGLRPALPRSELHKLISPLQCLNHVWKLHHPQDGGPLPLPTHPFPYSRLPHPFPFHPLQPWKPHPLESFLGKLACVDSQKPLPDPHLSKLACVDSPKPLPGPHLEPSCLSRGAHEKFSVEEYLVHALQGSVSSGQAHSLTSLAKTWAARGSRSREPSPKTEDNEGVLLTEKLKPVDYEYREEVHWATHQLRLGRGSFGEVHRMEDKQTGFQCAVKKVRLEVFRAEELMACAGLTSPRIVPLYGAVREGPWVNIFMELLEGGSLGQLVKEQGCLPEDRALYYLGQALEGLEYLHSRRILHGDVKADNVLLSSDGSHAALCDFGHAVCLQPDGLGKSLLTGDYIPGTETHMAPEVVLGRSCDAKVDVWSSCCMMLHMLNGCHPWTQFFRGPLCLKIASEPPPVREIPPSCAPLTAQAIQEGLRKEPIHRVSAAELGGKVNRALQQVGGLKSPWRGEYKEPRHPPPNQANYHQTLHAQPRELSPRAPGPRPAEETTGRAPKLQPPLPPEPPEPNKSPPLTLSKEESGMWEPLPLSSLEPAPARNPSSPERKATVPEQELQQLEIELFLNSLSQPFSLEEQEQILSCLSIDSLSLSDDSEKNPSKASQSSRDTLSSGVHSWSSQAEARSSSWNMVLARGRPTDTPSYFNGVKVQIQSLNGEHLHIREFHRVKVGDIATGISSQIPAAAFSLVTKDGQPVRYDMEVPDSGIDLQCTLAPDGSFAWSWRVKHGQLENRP
Method in brief: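 GST-tagged NIK (0.2 nM) auto-phosphorylation with 25 microM ATP in 50 mM Tris pH 7.5, 5 mM MgCl2, 1% DMSO, 1 h at 25° C. Anti-phospho-IKK Ser176/180 AlphaScreen readout; blank-subtracted IC50 from sigmoidal fit. Run at two sites.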

[2] = target: T1, recombinant human NF-kappaB-inducing kinase (NIK/MAP3K14); assay: Biological Assay A: inhibition of recombinant human NF-kappaB-inducing kinase (NIK/MAP3K14) activity (MBP phosphorylation, Mesoscale); conditions: MSD MBP; averaged over all measurements on all batches; read-out: Assay A Biochemical (MSD MBP) IC50
Method: Pharmacological Part Biological Assay A Inhibition of Recombinant Human NF-kappaB-Inducing Kinase (NIK/MAP3K14) Activity
Assay buffer was 50 mM Tris pH 7.5 containing 1 mM EGTA (ethylene glycol tetraacetic acid), 1 mM DTT (dithiothreitol), 0.1 mM Na3VO4, 5 mM MgCl2, 0.01% Tween® 20. Assays were carried out in 384 well Mesoscale high binding plates which had been coated with myelin basic protein (MBP) and blocked with bovine serum albumin to prevent non-specific protein binding. All compounds tested were dissolved in dimethyl sulfoxide (DMSO) and further dilutions were made in assay buffer. Final DMSO concentration was 1% (v/v) in assays. Incubations consisted of compound (1% DMSO in control and blank wells), 25 μM […] (ATP), and 10 nM NIK/MAP3K14 substituting enzyme with buffer in the blank wells. Incubations were carried out for 1 h at 25° C. and were followed by washing and sequential incubation with rabbit anti-phospho-MBP and anti-rabbit Ig Sulfotag antibody before reading bound Sulfotag on a Mesoscale Discovery. Signal obtained in the wells containing blank samples was subtracted from all other wells and […] were determined by fitting a sigmoidal curve to % inhibition of control versus Log10 compound concentration.
(§1) Data for the compounds of the invention in the above assays are provided in Table A (the values in Table are averaged values over all measurements on all batches of a compound; values as IC50 (nM)). (‘n.c.’ means not calculated: ‘Co.’ means compound)

[3] = system: P-IKKα levels in L363 (NIK translocated multiple myeloma) cells; assay: Biological Assay C: effect of compounds on P-IKKα levels in L363 (NIK translocated multiple myeloma) cells, performed at 2 locations; format: cell-based, human; conditions: L363 cells, P-IKKα levels, averaged values
Method: Effect of Compounds on P-IKKα Levels in L363 (NIK Translocated Multiple Myeloma) Cells
All compounds tested were dissolved in DMSO and further dilutions were made in culture medium. Final DMSO concentration was 1% (v/v) in cell assays. The human L363 cells (ATCC) were cultured in RPMI 1640 medium supplemented with GlutaMax and 10% fetal calf serum (PAA). Cells were routinely maintained at densities of 0.2×10^6 cells per ml-1×10^6 cells per ml at 37° C. in a humidified 5% CO2 atmosphere. Cells were passaged twice a week splitting back to obtain the low density. Cells were seeded in 96 well plates (Nunc 167008) at 2×10^6 per ml media in a volume of 75 μl per well plus 25 μl […] recombinant human B-cell activating factor (BAFF/BLyS/TNFSF13B). Seeded cells were incubated at 37° C. in a humidified 5% CO2 atmosphere for 24 hr. Drugs and/or solvents were added (20 μl) to a final volume of 120 μl. Following 2 hr treatment plates were removed from the incubator and cell lysis was achieved by the addition of 30 μl 5× lysis buffer followed by shaking on a plate shaker at 4° C. for 10 min. At the end of this incubation lysed cells were centrifuged at 800×g for 20 min at 4° C. and the lysate was assessed for P-IKKα levels by sandwich immuno-assay carried out in anti-rabbit antibody coated Mesoscale plates. Within an experiment, the results for each treatment were the mean of 2 replicate wells. For initial screening purposes, compounds were tested using an 8 point dilution curve (serial 1:3 dilutions). For each experiment, controls (containing MG132 and BAFF but no test drug) and a blank incubation (containing MG132 and BAFF and 1 μM ADS125117, a test concentration known to give full inhibition) were run in parallel. The blank incubation value was subtracted from all control and sample values. To determine the IC50 a sigmoidal curve was fitted to the plot of % inhibition of control P-IKKα levels versus Log10 compound concentration.
Assay C was performed at 2 different locations.
as §1

[4] = location 2, read-out: Assay B location 2 IC50
[5] = Homo sapiens, L-363, location 2, read-out: Assay C location 2 IC50
[6] = Homo sapiens, L-363, location 1, read-out: Assay C location 1 IC50
[7] = location 1, read-out: Assay B location 1 IC50

| SMILES | IC50 [1, 4] [µM] | IC50 [2] [µM] | IC50 [3, 5] [µM] | IC50 [3, 6] [µM] | IC50 [1, 7] [µM] | IC50 ([3]; location 2, read-out: Assay C location 2 IC50) [µM] |
| --- | --- | --- | --- | --- | --- | --- |
| COc1cc(CNC(C)=O)ccc1Nc1nccc(-c2cnc3c(c2)C(C)(C)CN3)n1 [Compound 62] | 0.0014 | 0.0055 | 0.0437 |  |  |  |
| Cc1cc(C(=O)N2CCOCC2)ccc1Nc1nccc(-c2cnc3c(c2)C(C)(CO)CN3)n1 (centres unmarked) [Compound 120] | 0.0078 | 0.0093 | 0.427 |  |  |  |
| COC1CCN(C(=O)c2ccc(Nc3nccc(-c4cnc5c(c4)C(C)(C)CN5)n3)c(C)c2)CC1 [Compound 79] | 0.0013 | 0.0118 | 0.0741 | 0.661 |  |  |
| COc1cc(C(=O)N2CCS(=O)(=O)CC2)ccc1Nc1nccc(-c2cnc3c(c2)C(C)(CO)CN3)n1 (centres unmarked) [Compound 132] | 0.0031 | 0.0033 | 0.513 |  | 0.01 |  |
| Cc1cc(C(=O)NC2CN(C)C2)ccc1Nc1nccc(-c2cnc3c(c2)C(C)(CO)CN3)n1 (centres unmarked) [Compound 89] | 0.0204 | 0.0631 | 5.01 |  |  |  |
| Cc1cc(C(=O)N2CCC(O)CC2)ccc1Nc1nccc(-c2cnc3c(c2)C(C)(CO)CN3)n1 (centres unmarked) [Compound 109] | 0.0055 | 0.0102 | 0.309 |  |  |  |
| COc1cc(C(=O)NC2CCOCC2)ccc1Nc1nccc(-c2cnc3c(c2)C(C)(CO)CN3)n1 (centres unmarked) [Compound 1] | 0.0026 | 0.012 | 0.129 |  |  |  |
| Cc1cc(C(=O)N2CCC(O)CC2)ccc1Nc1nccc(-c2cnc3c(c2)C(C)(C)CN3)n1 [Compound 54] | 0.0034 | 0.0089 | 0.373 | 0.263 |  |  |
| CC1(C)CNc2ncc(-c3ccnc(Nc4ccc(C(=O)NC5CCOCC5)cc4OC(F)F)n3)cc21 [Compound 82] | 0.0027 | 0.0246 | 0.282 |  |  |  |
| COc1cc(C(=O)NC2CCN(C)CC2)ccc1Nc1nccc(-c2cnc3c(c2)C(C)(CO)CN3)n1 (centres unmarked) [Compound 130] | 0.0107 | 0.0102 | 0.661 |  |  |  |
| COC1CCN(C(=O)c2ccc(Nc3nccc(-c4cnc5c(c4)C(C)(CO)CN5)n3)c(C)c2)CC1 (centres unmarked) [Compound 121] | 0.0072 | 0.0112 |  |  |  | 0.38 |
| Cc1cc(C(=O)NC2CCOCC2)ccc1Nc1nccc(-c2cnc3c(c2)C(C)(CCC#N)CN3)n1 (centres unmarked) [Compound 125] |  | 0.0123 | 1.23 |  | 0.0316 |  |
| CC(=O)NCc1cccc(Nc2nccc(-c3cnc4c(c3)C(C)(CO)CN4)n2)c1C (centres unmarked) [Compound 360] | 0.0339 | 0.0776 | 0.912 |  |  |  |
| COc1cc(CNC(C)=O)c(C)c(Nc2nccc(-c3cnc4c(c3)C(C)(CO)CN4)n2)c1 (centres unmarked) [Compound 84] | 0.0048 | 0.0054 | 0.049 |  |  |  |
| COc1cc(Nc2nccc(-c3cnc4c(c3)C(C)(C)CN4)n2)c(C)c(C(=O)N2CCOCC2)c1 [Compound 108] |  | 0.0151 | 0.102 |  |  |  |
| COc1cc(C#N)ccc1Nc1nccc(-c2cnc3c(c2)C(C)(C)CN3)n1 [Compound 116] |  | 0.309 | 3.16 |  |  |  |
| COc1cc(C(=O)NC2CCOCC2)ccc1Nc1nccc(-c2cnc3c(c2)C(C)(C)CN3)n1 [Compound 50] | 0.0012 | 0.0074 | 0.0813 |  |  |  |
| COCC(=O)NCc1ccc(Nc2nccc(-c3cnc4c(c3)C(C)(C)CN4)n2)c(C)c1 [Compound 76] |  | 0.0135 | 0.182 |  |  |  |
| Cc1cc(C(=O)N2CCN(C)CC2)ccc1Nc1nccc(-c2cnc3c(c2)C(C)(C)CN3)n1 [Compound 81] | 0.0026 | 0.0148 | 0.589 |  |  |  |
| Cc1cc(C(=O)NC2CCOCC2)ccc1Nc1nccc(-c2cnc3c(c2)C(C)(CO)CN3)n1 (centres unmarked) [Compound 87] | 0.0135 | 0.0214 | 1.15 |  | 0.0178 |  |

| SMILES | IC50 [1, 4] [µM] | IC50 [2] [µM] | IC50 [3, 5] [µM] | IC50 [3, 6] [µM] | IC50 [1, 7] [µM] | IC50 ([3]; location 2, read-out: Assay C location 2 IC50) [µM] |
| --- | --- | --- | --- | --- | --- | --- |
| COc1cc(Nc2nccc(-c3cnc4c(c3)C(C)(CO)CN4)n2)cc(OC)c1OC (centres unmarked) [Compound 46] | 0.0028 | 0.0033 | ~0.129 |  |  |  |
| CC(=O)NCc1ccc(Nc2nccc(-c3cnc4c(c3)C(C)(CO)CN4)n2)c(C)c1 (centres unmarked) [Compound 86] | 0.0112 | 0.0151 | 0.549 |  |  |  |
| Cc1cc(C(=O)NC2CCOCC2)ccc1Nc1nccc(-c2cnc3c(c2)C(C)(CC#N)CN3)n1 (centres unmarked) [Compound 126] |  | 0.0087 | 0.537 |  | 0.0148 |  |
| CC(=O)NCc1ccc(Nc2nccc(-c3cnc4c(c3)C(C)(C)CN4)n2)c(OC(F)F)c1 [Compound 85] | 0.003 | 0.0141 | 0.0676 |  |  |  |
| Cc1cc(C(=O)NC2CCOCC2)ccc1Nc1nccc(-c2cnc3c(c2)C(C)(CCO)CN3)n1 (centres unmarked) [Compound 124] |  | 0.0078 | 2.75 |  |  |  |
| COc1c(Nc2nccc(-c3cnc4c(c3)C(C)(C)CN4)n2)cccc1C(=O)N1CCC(O)CC1 [Compound 114] |  | 0.251 | > 10 |  |  |  |
| COc1cc(CNC(C)=O)c(C)c(Nc2nccc(-c3cnc4c(c3)C(C)(C)CN4)n2)c1 [Compound 49] | 0.0018 | 0.0062 | 0.0437 | 0.549 |  |  |
| COc1cc(C(=O)N2CCC(OC)CC2)ccc1Nc1nccc(-c2cnc3c(c2)C(C)(CO)CN3)n1 (centres unmarked) [Compound 131] | 0.0009 | 0.0045 | 0.0708 |  |  |  |
| COc1cc(Nc2nccc(-c3cnc4c(c3)C(C)(C)CN4)n2)c(C)c(C(=O)N2CCC(O)CC2)c1 [Compound 107] |  | 0.0135 | 0.0724 |  |  |  |
| Cc1cc(C(=O)NC2CN(C)C2)ccc1Nc1nccc(-c2cnc3c(c2)C(C)(C)CN3)n1 [Compound 55] | 0.0033 | 0.0324 | 0.288 |  |  |  |
| CC(=O)NC(C)c1cccc(Nc2nccc(-c3cnc4c(c3)C(C)(C)CN4)n2)c1 (centres unmarked) [Compound 96] |  | 0.0135 | ~6.31 |  |  |  |
| Cc1cc(C(=O)N2CCOCC2)ccc1Nc1nccc(-c2cnc3c(c2)C(C)(C)CN3)n1 [Compound 78] |  | 0.0166 | > 10 |  |  |  |
| Cc1cc(CNC(=O)C(C)C)ccc1Nc1nccc(-c2cnc3c(c2)C(C)(C)CN3)n1 [Compound 75] |  | 0.0123 | 0.135 |  |  |  |
| COC1CCN(C(=O)c2ccc(Nc3nccc(-c4cnc5c(c4)C(C)(C)CN5)n3)c(OC(F)F)c2)CC1 [Compound 129] |  | 0.0159 | 0.229 |  |  |  |
| CC(=O)NCc1ccc(Nc2nccc(-c3cnc4c(c3)C(C)(C)CN4)n2)c(Br)c1 [Compound 63] |  | 0.0083 | 0.0759 |  |  |  |
| CC(=O)NCc1ccc(Nc2nccc(-c3cnc4c(c3)C(C)(C)CN4)n2)c(C(F)(F)F)c1 [Compound 67] |  | 0.0457 | 1.66 |  |  |  |
| Cc1cc(C(=O)N2CCS(=O)(=O)CC2)ccc1Nc1nccc(-c2cnc3c(c2)C(C)(C)CN3)n1 [Compound 100] |  | 0.0066 | 0.174 |  |  |  |
| CC(=O)NCc1ccc(Nc2nccc(-c3cnc4c(c3)C(C)(C)CN4)n2)c(F)c1 [Compound 83] |  | 0.0355 | 2.69 |  |  |  |
| COc1ccc(S(C)(=O)=O)cc1Nc1nccc(-c2cnc3c(c2)C(C)(C)CN3)n1 [Compound 119] |  | 0.295 | 5.5 |  |  |  |
